“And” between values parts separate entries of the source, which are not always exact repeats. Identical values can stand only once.
Key:
HLA-A2 molecule [1] = target: HLA-A2 molecule (Homo sapiens, UniProt P04439, I166T/I218V/L300P/L318F/N151K/N90K/P208A/P217A/Q86G/Q94H/R138H/R169H/T345S); assay: T2 cell binding assay: peptide binding to HLA-A2 by flow cytometry
Description: In this assay, increased stability (accumulation) of HLA-A2 molecules on the surface of T2 cells as a consequence of peptide binding is measured by increased binding of antibody directed against HLA-A2 molecule. Briefly, 1×10^6 cells in serum-free Iscove's modified Dulbecco's complete medium were incubated with peptides at a concentration of 50 μg/ml in 24-well culture plates at 37° C. in 5% CO2. Flow cytometry for peptide binding was performed using T2 cells and single-color analysis. After cells were washed three times in DPBS, as described above, they were incubated for 1 h with a 1:100 dilution of HLA-A2-specific MAb (One Lambda, Inc.) per 10^6 cells. UPC-10 (Cappel/Organon Teknika) was used as isotype control. The cells were then washed three times and incubated with 1:100 dilution of FITC-labeled anti-mouse IgG (BD Biosciences). Analysis was conducted with the FACScan, as described above. Cells were maintained on ice during all cell preparation and staining.
The primary amino acid sequence of human MUC-1 was analyzed for consensus motifs for novel HLA-A2 binding peptides. […] The CEA CAP1-6D peptide and a NCA peptide were used as a positive and negative control, respectively.

peptide-HLA-A2 complexes = peptide-HLA-A2 complexes (Homo sapiens, UniProt P04439, D140Y/D185E/D98H/E176V/E277Q/G131W/G231S/I119V/I121R/I166T/I218V/L300P/L318F/N151K/N90K/P208A/P217A/Q86G/Q94H/R138H/R169H/T345S); assay: Stability of peptide-HLA-A2 complex on T2 cells (brefeldin-A); format: binding; conditions: 50 μg/ml overnight, 8-hour observation
Description: FIG. 2 is a graph showing the comparison of the stability of the complex of the P-92, P-93L or P-93I peptide with HLA-A2. T2 cells were incubated overnight with P-92 (open square), P-93L (closed square) or P-93I (closed triangle) peptide at a concentration of 50 μg/ml and then washed free of unbound peptide and incubated with brefeldin-A to block delivery of new class I molecules to the cell surface. At the indicated times, cells were stained for the presence of surface peptide-HLA-A2 complexes. Results are expressed in relative percentage of binding compared with 100% at time 0.
The stability of the peptide-MHC complex for peptides P-92 (native), P-93L and P-93I, was examined. Peptides were incubated with T2 cells overnight, the unbound peptides were washed off, and then incubated with brefeldin-A to block delivery of new class I molecules to the cell surface; at various time points cells were analyzed for the presence of peptide-HLA-A2 complexes.

HLA-A2 molecule [2] = target: HLA-A2 molecule (Homo sapiens, UniProt P04439, D140Y/D185E/D98H/E176V/E277Q/G131W/G231S/I119V/I121R/I166T/I218V/L300P/L318F/N151K/N90K/P208A/P217A/Q86G/Q94H/R138H/R169H/T345S); assay: T2 cell binding assay: peptide binding to HLA-A2 by flow cytometry; conditions: peptides 0-50 μg/ml; MFI
T-1191-MUC-1 cells [3] = assay: IFN-γ production (ELISA) by T-1191-MUC-1 cells stimulated with peptide-pulsed autologous B cells; format: cell-based, human; conditions: for Production of IFN-γ, with peptide: T-1191-MUC-1 at IVS-3, autologous EBV-B cells pulsed 25 μg/ml, effector-to-APC 1:3, 24 h
Description: (§1) Supernatants of T cells exposed for 24 h to peptide-pulsed autologous EBV-transformed B cells, in IL-2-free medium at various peptide concentrations, were screened for secretion of IFN-γ using an ELISA kit (R & D Systems, Minneapolis, Minn.). The results were expressed in pg/ml. A CBA system (BD PharMingen, San Diego, Calif.) was also used to determine the secretion of multiple cytokines by specific T cells. The CBA system uses the fluorescence detection by flow cytometry to measure soluble analyses in a particles-based immunoassay. The BD human Th1/Th2 cytokine CBA Kit was used to measure IL-2, IL-4, IL-5, IL-10, TNF-α protein levels in a single sample. The cytokine capture beads were mixed with PE-conjugated detection antibodies and then incubated with recombinant cytokine standards or test samples to form sandwich complexes. The sample results were generated in graphic and tabular format, using BD PharMingen CBA analysis software. The results were expressed in pg/ml.
The specificity of the MUC-1-specific T cells generated (designated T-1191-MUC-1) was analyzed after IVS cycle 3 (see Materials and Methods) for their ability to release IFN-γ after stimulation with autologous B cells pulsed with each of the MUC-1 peptides listed in Table 1.

T-1191-MUC-1 cells [4] = assay: CBA assay for production of cytokines by MUC-1 peptide-stimulated T cells; format: cell-based, human; conditions: peptide 25 μg/ml; effector-to-APC 1:3; 24 h
Description: as §1
The ability of the P-93L and P-93I agonist peptides at various peptide concentrations, to activate the T-1191-MUC-1 cells, was compared. […] The P-93L agonist peptide was thus chosen for further study. The cytokine profile of T-1191-MUC-1 cells stimulated with APCs pulsed with either the P-92 or the P-93L peptide was then analyzed. A CBA assay was used for the analysis. […] No TNF-α could be detected in the supernatants at the 24-h time point.

[5] = system: MUC-1-specific T-cell lines T-23-P-92, T-23-P-93L, T-18-P-92, T-18-P-93L; assay: IFN-γ production by T-cell lines from two pancreatic cancer subjects stimulated with peptide-pulsed DCs; format: cell-based, human; conditions: IVS-4; allogeneic DCs pulsed 25 μg/ml; effector-to-APC 10:1; 24 h
[6] = system: CEA-specific T cells (V8T); format: cell-based, human; conditions: 24 h
[7] = system: MUC-1-specific T cells (T-1191-P93L); format: cell-based, human; conditions: 24 h
[8] = system: T-cell lines T-rV, T-rF, T-rF(CEA), T-rF(MUC); format: cell-based, human; conditions: 24 h
[9] = system: T-cell lines T-55, T-49, T-41; assay: IFN-γ production by T-cell lines from cancer patients established with rF-CEA/MUC/TRICOM-infected DCs; format: cell-based, human; conditions: autologous DCs as APC; peptides 25 μg/ml; effector-to-APC 10:1; 24 h
[10] = Table 1, T2 cells, peptide 50 μg/ml

AIWGQDVTSL [I-93/L-101]
T2 binding (HLA-A2 molecule [1]; Table 4, P-92 analogues): 280 relative fluorescence values

AIWGQDVTSV [Peptide P-93I]
T2 binding (HLA-A2 molecule [1]; Table 4, P-92 analogues): 823 relative fluorescence values
stability of the peptide-HLA-A2 complex (FIG. 2) (peptide-HLA-A2 complexes): more stable than P-92-HLA-A2 complexes
binding to HLA-A2 at various peptide concentrations (FIG. 1) (HLA-A2 molecule [2]): higher levels than P-92 at all peptide concentrations

ALAIVYLIAL [Peptide P-1172]
T2 binding (HLA-A2 molecule [1]; [10]): 372 relative fluorescence
Production of IFN-γ, with peptide (T-1191-MUC-1 cells [3]): <52.3 pg/mL

ALLVLVCVLV [Peptide P-1162]
T2 binding (HLA-A2 molecule [1]; [10]): 431 relative fluorescence
Production of IFN-γ, with peptide (T-1191-MUC-1 cells [3]): <52.3 pg/mL

ALWGQDVTSL [L-93/L-101]
T2 binding (HLA-A2 molecule [1]; Table 4, P-92 analogues): 736 relative fluorescence values

ALWGQDVTSV [Peptide P-93L, MUC-1 agonist peptide]
T2 binding (HLA-A2 molecule [1]; Table 4, P-92 analogues): 821 relative fluorescence values
IFN-γ production by T-1191-MUC-1 cells at various peptide concentrations (FIG. 3) (T-1191-MUC-1 cells [3]; peptides 0-6.25 μg/ml): greatest level of IFN-γ production
IFN-γ (T-1191-MUC-1 cells [4]): 650 pg/ml/10^6 cell/ml
IL-2 (T-1191-MUC-1 cells [4]): 366.9 pg/ml/10^6 cell/ml
IL-4 (T-1191-MUC-1 cells [4]): <20 pg/ml/10^6 cell/ml
IL-5 (T-1191-MUC-1 cells [4]): 140.9 pg/ml/10^6 cell/ml
IL-10 (T-1191-MUC-1 cells [4]): <20 pg/ml/10^6 cell/ml
TNF-α (T-1191-MUC-1 cells [4]): <20 pg/ml/10^6 cell/ml
stability of the peptide-HLA-A2 complex (FIG. 2) (peptide-HLA-A2 complexes): more stable than P-92-HLA-A2 complexes
IFN-γ produced by T-18-P-92 [5]: 366.6 pg
IFN-γ produced by T-18-P-93L [5]: 524.1 pg
IFN-γ produced by T-23-P-92 [5]: 644.5 pg
IFN-γ produced by T-23-P-93L [5]: 973.0 pg
IFN-γ, CEA-specific CTL [6]: <15 pg/mL
IFN-γ, MUC-1-specific CTL [7]: 458 pg/mL and 550 pg/mL
Production of IFN-γ by T-rF [8]: 446.0 pg/mL
Production of IFN-γ by T-rF(CEA) [8]: <15.6 pg/mL
Production of IFN-γ by T-rF(MUC) [8]: 626.8 pg/mL
Production of IFN-γ by T-rV [8]: 514.0 pg/mL
IFN-γ secretion by T-41 [9]: 745.0 pg/mL
IFN-γ secretion by T-49 [9]: 819.0 pg/mL
IFN-γ secretion by T-55 [9]: 985.8 pg/mL
binding to HLA-A2 at various peptide concentrations (FIG. 1) (HLA-A2 molecule [2]): higher levels than P-92 at all peptide concentrations

AMWGQDVTSL [M-93/L-101]
T2 binding (HLA-A2 molecule [1]; Table 4, P-92 analogues): 325 relative fluorescence values

AMWGQDVTSV [Peptide M-93]
T2 binding (HLA-A2 molecule [1]; Table 4, P-92 analogues): 723 relative fluorescence values

ATWGQDVTSV [Peptide P-92]
T2 binding (HLA-A2 molecule [1]; [10]): 740 relative fluorescence
T2 binding (HLA-A2 molecule [1]; Table 4, P-92 analogues): 510 relative fluorescence values
Production of IFN-γ, with peptide (T-1191-MUC-1 cells [3]): 380.8 pg/mL
IFN-γ (T-1191-MUC-1 cells [4]): 266 pg/ml/10^6 cell/ml
IL-2 (T-1191-MUC-1 cells [4]): 58.8 pg/ml/10^6 cell/ml
IL-4 (T-1191-MUC-1 cells [4]): <20 pg/ml/10^6 cell/ml
IL-5 (T-1191-MUC-1 cells [4]): <20 pg/ml/10^6 cell/ml
IL-10 (T-1191-MUC-1 cells [4]): <20 pg/ml/10^6 cell/ml
TNF-α (T-1191-MUC-1 cells [4]): <20 pg/ml/10^6 cell/ml
IFN-γ produced by T-18-P-92 [5]: 168.0 pg
IFN-γ produced by T-18-P-93L [5]: 378.2 pg
IFN-γ produced by T-23-P-92 [5]: 299.8 pg
IFN-γ produced by T-23-P-93L [5]: 400.5 pg

GTQSPFFLLL [Peptide P-4]
T2 binding (HLA-A2 molecule [1]; [10]): 467 relative fluorescence
Production of IFN-γ, with peptide (T-1191-MUC-1 cells [3]): 260.0 pg/mL
